Reference: PubChem BioAssay AID200 (DTP/NCI, 2004)
Values joined by “and” are separate entries in the source; they are usually repeats but may differ in a detail not shown here. Equal values may be shown once. Toxic doses and inconclusive results are not listed. Where a SMILES comes first, the peptide text is derived from it. Bridges are numbered along the chain shown (N, C = ends).

Test system: B6C3F1 mice, B16 melanoma ip, median survival T/C
Assay: NCI In Vivo Anticancer Drug Screen. Data for tumor model B16 Melanoma (intraperitoneal) in B6C3F1 mice
Details: endpoint: median survival time, higher = longer survival
How it was run: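 Mice bearing transplanted tumor were dosed with compound or vehicle, and survival was recorded. Activity is expressed as the treated-group measurement (T) divided by the vehicle control measurement (C).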

[1] = dose: 6.25 mg/kg/injection, schedule: Q01DX009 (ip), vehicle: Klucel (hydroxypropylcellulose) (HPC)
[2] = dose: 12.5 mg/kg/injection, schedule: Q01DX009 (ip), vehicle: Klucel (hydroxypropylcellulose) (HPC)
[3] = dose: 25.0 mg/kg/injection, schedule: Q01DX009 (ip), vehicle: Klucel (hydroxypropylcellulose) (HPC)
[4] = dose: 50.0 mg/kg/injection, schedule: Q01DX009 (ip), vehicle: Klucel (hydroxypropylcellulose) (HPC)
[5] = dose: 100.0 mg/kg/injection, schedule: Q01DX009 (ip), vehicle: Klucel (hydroxypropylcellulose) (HPC)

SMILES: O=NN(CCCl)C(=O)NCCCl
- T/C (dose: 1.5 mg/kg/injection, schedule: Q01DX009 (ip), vehicle: alcohol): 112 % of control and 118 % of control
- T/C (dose: 1.5 mg/kg/injection, schedule: Q01DX009 (ip), vehicle: other): 108 % of control
- T/C (dose: 3.0 mg/kg/injection, schedule: Q01DX009 (ip), vehicle: other): 116 % of control
- T/C (dose: 5.0 mg/kg/injection, schedule: Q01DX005 (iv), vehicle: saline + alcohol): 107 % of control
- T/C (dose: 6.0 mg/kg/injection, schedule: Q01DX009 (ip), vehicle: alcohol): 184 % of control
- T/C (dose: 6.0 mg/kg/injection, schedule: Q01DX009 (ip), vehicle: other): 154 % of control
- T/C (dose: 10.0 mg/kg/injection, schedule: Q01DX001 (ip), vehicle: saline + alcohol): 120 % of control
- T/C (dose: 10.0 mg/kg/injection, schedule: Q01DX001 (ip), vehicle: saline): 111 % of control and 120 % of control
- T/C (dose: 10.0 mg/kg/injection, schedule: Q01DX001 (iv), vehicle: saline + alcohol): 104 % of control
- T/C (dose: 10.0 mg/kg/injection, schedule: Q01DX005 (iv), vehicle: saline + alcohol): 124 % of control
- T/C (dose: 12.0 mg/kg/injection, schedule: Q01DX009 (ip), vehicle: other): 110 % of control
- T/C (dose: 20.0 mg/kg/injection, schedule: Q01DX001 (ip), vehicle: saline + alcohol): 154 % of control
- T/C (dose: 30.0 mg/kg/injection, schedule: Q01DX001 (ip), vehicle: saline): 156 % of control
- T/C (dose: 40.0 mg/kg/injection, schedule: Q01DX001 (ip), vehicle: saline + alcohol): 175 % of control
- T/C (dose: 40.0 mg/kg/injection, schedule: Q01DX001 (iv), vehicle: saline + alcohol): 185 % of control

SMILES: C[C@]12CC[C@@H]3c4ccc(O)cc4CC[C@H]3[C@@H]1CC[C@@H]2O
- T/C [1]: 89 % of control
- T/C [2]: 98 % of control
- T/C [3]: 90 % of control
- T/C [4]: 94 % of control
- T/C [5]: 90 % of control
- T/C (dose: 200.0 mg/kg/injection, schedule: Q01DX009 (ip), vehicle: Klucel (hydroxypropylcellulose) (HPC)): 89 % of control

SMILES: O=C(O)CNC(=O)C(Cc1ccccc1)NC(=O)OCc1ccccc1 (centres undefined) (HELM PEPTIDE1{[O=C(OCc1ccccc1)[*:2]].[O=C(C(Cc1ccccc1)N[*:1])[*:2]].G}$$$$V2.0)
- T/C [3]: 94 % of control
- T/C [4]: 102 % of control
- T/C [5]: 86 % of control and 94 % of control

SMILES: CCC(C)C1NC(=O)C(CC(C)C)NC(=O)C(C(C)C)NC(=O)C2CSSCC(NC1=O)C(=O)N2 (centres undefined) (cyclo(CCVLI); disulfide 1-2; configuration not given here)
- T/C (dose: 31.25 micrograms/kg/injection, schedule: Q01DX009 (ip), vehicle: Klucel (hydroxypropylcellulose) (HPC)): 105 % of control
- T/C (dose: 62.5 micrograms/kg/injection, schedule: Q01DX009 (ip), vehicle: Klucel (hydroxypropylcellulose) (HPC)): 105 % of control
- T/C (dose: 125.0 micrograms/kg/injection, schedule: Q01DX009 (ip), vehicle: Klucel (hydroxypropylcellulose) (HPC)): 96 % of control
- T/C (dose: 500.0 micrograms/kg/injection, schedule: Q01DX009 (ip), vehicle: Klucel (hydroxypropylcellulose) (HPC)): 94 % of control
- T/C (dose: 1000.0 micrograms/kg/injection, schedule: Q01DX009 (ip), vehicle: Klucel (hydroxypropylcellulose) (HPC)): 95 % of control

SMILES: COc1cc2c(cc1OC)-c1c3c(cc4c1[C@@H](C2)N(C)CC4)OCO3
- T/C (dose: 6.25 mg/kg/injection, schedule: Q01DX009 (ip), vehicle: distilled water + Tween-80): 98 % of control
- T/C (dose: 12.5 mg/kg/injection, schedule: Q01DX009 (ip), vehicle: distilled water + Tween-80): 89 % of control
- T/C (dose: 25.0 mg/kg/injection, schedule: Q01DX009 (ip), vehicle: distilled water + Tween-80): 104 % of control
- T/C (dose: 50.0 mg/kg/injection, schedule: Q01DX009 (ip), vehicle: distilled water + Tween-80): 92 % of control

SMILES: COc1cccc2c1C(=O)c1c(O)c3c(c(O)c1C2=O)C[C@@](O)(C(C)=O)C[C@@H]3OC1CC(NC(=O)C(N)CC(C)C)C(O)C(C)O1 (some centres undefined)
- T/C (dose: 6.25 mg/kg/injection, schedule: Q01DX001 (ip), vehicle: saline): 179 % of control
- T/C (dose: 12.5 mg/kg/injection, schedule: Q01DX001 (ip), vehicle: saline): 204 % of control

SMILES: C/C=C(\C)c1cc(=O)c2c(C)cc3c(c2o1)C(=O)c1c(O)c(C2CC(C)(N(C)C)C(O)C(C)O2)cc(C2CC(N(C)C)C(O)C(C)O2)c1C3=O (centres undefined)
- T/C (dose: 31.25 micrograms/kg/injection, schedule: Q01DX009 (ip), vehicle: saline): 111 % of control
- T/C (dose: 62.5 micrograms/kg/injection, schedule: Q01DX009 (ip), vehicle: saline): 114 % of control
- T/C (dose: 156.25 micrograms/kg/injection, schedule: Q01DX009 (ip), vehicle: saline): 176 % of control
- T/C (dose: 1250.0 micrograms/kg/injection, schedule: Q01DX009 (ip), vehicle: saline): 93 % of control

SMILES: S=c1[nH]cc2cnccn12
- T/C (dose: 12.5 mg/kg/injection, schedule: Q01DX009 (ip), vehicle: saline with Tween-80): 94 % of control and 95 % of control
- T/C (dose: 25.0 mg/kg/injection, schedule: Q01DX009 (ip), vehicle: saline with Tween-80): 93 % of control and 98 % of control
- T/C (dose: 50.0 mg/kg/injection, schedule: Q01DX009 (ip), vehicle: saline with Tween-80): 93 % of control and 96 % of control
- T/C (dose: 100.0 mg/kg/injection, schedule: Q01DX009 (ip), vehicle: saline with Tween-80): 97 % of control and 100 % of control
- T/C (dose: 200.0 mg/kg/injection, schedule: Q01DX009 (ip), vehicle: saline with Tween-80): 91 % of control and 92 % of control
- T/C (dose: 400.0 mg/kg/injection, schedule: Q01DX009 (ip), vehicle: saline with Tween-80): 97 % of control

SMILES: COC(=O)[C@@]12OC[C@]34[C@H]([C@@H](O)[C@@H]1O)[C@@]1(C)CC(=O)C(OC(=O)CC(=O)OC5=C(C)[C@@H]6C[C@H]7OC(=O)[C@H](OC(=O)/C=C(\C)C(C)C)[C@H]8[C@]9(C(=O)OC)OC[C@]78[C@H]([C@@H](O)[C@@H]9O)[C@@]6(C)CC5=O)=C(C)[C@@H]1C[C@H]3OC(=O)[C@H](OC(=O)/C=C(\C)C(C)C)[C@@H]24
- T/C (dose: 1.5 mg/kg/injection, schedule: Q01DX009 (ip), vehicle: saline + Tween-80 + alcohol): 154 % of control

SMILES: O=[Te]=O
- T/C (dose: 3.12 mg/kg/injection, schedule: Q01DX009 (ip), vehicle: saline): 110 % of control
- T/C (dose: 6.25 mg/kg/injection, schedule: Q01DX009 (ip), vehicle: saline): 109 % of control

SMILES: [N-]=[N+]=C1N=CN=C1c1ncn[nH]1
- T/C (dose: 3.12 mg/kg/injection, schedule: Q01DX009 (ip), vehicle: Klucel (hydroxypropylcellulose) (HPC)): 104 % of control
- T/C [1]: 113 % of control
- T/C [2]: 121 % of control

SMILES: O=C(NC(=S)Nc1ccccc1)c1ccccc1
- T/C (dose: 9.4 mg/kg/injection, schedule: Q01DX009 (ip), vehicle: Klucel (hydroxypropylcellulose) (HPC)): 99 % of control
- T/C (dose: 18.75 mg/kg/injection, schedule: Q01DX009 (ip), vehicle: Klucel (hydroxypropylcellulose) (HPC)): 94 % of control
- T/C (dose: 37.5 mg/kg/injection, schedule: Q01DX009 (ip), vehicle: Klucel (hydroxypropylcellulose) (HPC)): 101 % of control
- T/C (dose: 75.0 mg/kg/injection, schedule: Q01DX009 (ip), vehicle: Klucel (hydroxypropylcellulose) (HPC)): 103 % of control

SMILES: CC(=O)O[C@H]1C(=O)[C@@]2(C)C(C(OC(=O)c3ccccc3)[C@]3(O)CC(OC(=O)[C@H](OC(=O)CCC(=O)O)C(NC(=O)c4ccccc4)c4ccccc4)C(C)=C1C3(C)C)C1(OC(C)=O)COC1C[C@@H]2O (some centres undefined)
- T/C (dose: 1.25 mg/kg/injection, schedule: Q01DX009 (ip), vehicle: water): 111 % of control
- T/C (dose: 2.5 mg/kg/injection, schedule: Q01DX009 (ip), vehicle: sodium bicarbonate): 119 % of control
- T/C (dose: 2.5 mg/kg/injection, schedule: Q01DX009 (ip), vehicle: water): 159 % of control
- T/C (dose: 5.0 mg/kg/injection, schedule: Q01DX009 (ip), vehicle: sodium bicarbonate): 154 % of control
- T/C (dose: 5.0 mg/kg/injection, schedule: Q01DX009 (ip), vehicle: water): 166 % of control
- T/C (dose: 10.0 mg/kg/injection, schedule: Q01DX009 (ip), vehicle: sodium bicarbonate): 159 % of control
- T/C (dose: 10.0 mg/kg/injection, schedule: Q01DX009 (ip), vehicle: water): 160 % of control and 183 % of control
- T/C (dose: 20.0 mg/kg/injection, schedule: Q01DX009 (ip), vehicle: sodium bicarbonate): 154 % of control
- T/C (dose: 20.0 mg/kg/injection, schedule: Q01DX009 (ip), vehicle: water): 160 % of control and 201 % of control
- T/C (dose: 40.0 mg/kg/injection, schedule: Q01DX009 (ip), vehicle: sodium bicarbonate): 185 % of control
- T/C (dose: 40.0 mg/kg/injection, schedule: Q01DX009 (ip), vehicle: water): 177 % of control and 218 % of control

SMILES: OCC1OC(n2cnc3c2NC=NC[C@H]3O)CC1O (some centres undefined)
- T/C (dose: 0.13 mg/kg/injection, schedule: Q01DX009 (ip), vehicle: saline): 84 % of control
- T/C (dose: 0.25 mg/kg/injection, schedule: Q01DX009 (ip), vehicle: saline): 78 % of control
- T/C (dose: 0.5 mg/kg/injection, schedule: Q01DX009 (ip), vehicle: saline): 96 % of control
